{"source": "PubChem BioAssay AID1224915", "tested_on": "MDA-MB-231 antiproliferation", "experiment": "PubChem AID 1224915"}
{"smiles": "COc1cc(-c2nn(CCN3CCC(N(C)C)CC3)c3ncnc(N)c23)ccc1NC(=O)OC(C)(C)C", "values": [{"measurement": "EC50", "result": 9, "unit": "nM"}]}
